Data published in ChEMBL document CHEMBL1909046, “DrugMatrix in vitro pharmacology data”.
pIC50, pKi: −log10 of the molar value.

Assays:
Glucocorticoid receptor = target: T1, Glucocorticoid receptor (Homo sapiens, UniProt P04150); details: hela s3; note: in other assays of this panel Not Active means under 50% inhibition at 10 µM
T1 sequence (P04150 whole entry): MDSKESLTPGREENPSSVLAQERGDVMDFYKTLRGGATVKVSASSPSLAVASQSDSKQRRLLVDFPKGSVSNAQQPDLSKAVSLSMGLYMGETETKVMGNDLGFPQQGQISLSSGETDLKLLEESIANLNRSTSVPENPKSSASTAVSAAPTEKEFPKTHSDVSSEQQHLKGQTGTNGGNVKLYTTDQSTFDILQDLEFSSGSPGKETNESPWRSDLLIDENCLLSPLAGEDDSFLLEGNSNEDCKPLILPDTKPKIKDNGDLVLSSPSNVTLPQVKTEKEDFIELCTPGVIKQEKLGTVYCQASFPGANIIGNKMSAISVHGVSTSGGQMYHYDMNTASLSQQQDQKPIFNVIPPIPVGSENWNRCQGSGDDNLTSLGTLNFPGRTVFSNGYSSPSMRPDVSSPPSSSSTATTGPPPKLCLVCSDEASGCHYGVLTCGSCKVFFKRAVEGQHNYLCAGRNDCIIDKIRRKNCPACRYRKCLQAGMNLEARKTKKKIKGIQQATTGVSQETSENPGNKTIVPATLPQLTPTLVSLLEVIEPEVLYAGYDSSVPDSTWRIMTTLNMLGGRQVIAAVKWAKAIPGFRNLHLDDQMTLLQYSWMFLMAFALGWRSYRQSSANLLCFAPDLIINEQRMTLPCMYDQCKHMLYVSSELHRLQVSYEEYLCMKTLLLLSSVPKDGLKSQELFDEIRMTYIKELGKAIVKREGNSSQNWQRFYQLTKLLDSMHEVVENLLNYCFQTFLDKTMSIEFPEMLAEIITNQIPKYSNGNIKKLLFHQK

[1] = DRUGMATRIX: ATPase, Na+/K+ enzyme inhibition (substrate: ATP); assay type: tissue-based, Sus scrofa, Heart; details: Not Active = under 50% inhibition at 10 µM
Histamine H2 receptor = Histamine H2 receptor (Homo sapiens, UniProt P25021); assay type: cell membranes, CHO-K1, Membrane; details: for IC50: cho-k1; for all read-outs here: in other assays of this panel Not Active means under 50% inhibition at 10 µM
[2] = target: T2, 5-hydroxytryptamine receptor 2C (Homo sapiens, UniProt P28335); assay: DRUGMATRIX: Serotonin (5-Hydroxytryptamine) 5-HT2C radioligand binding (ligand: [3H] Mesulergine); assay type: cell membranes, CHO-K1, Membrane; details: Not Active = under 50% inhibition at 10 µM; for IC50: cho-k1
T2 sequence (P28335 whole entry): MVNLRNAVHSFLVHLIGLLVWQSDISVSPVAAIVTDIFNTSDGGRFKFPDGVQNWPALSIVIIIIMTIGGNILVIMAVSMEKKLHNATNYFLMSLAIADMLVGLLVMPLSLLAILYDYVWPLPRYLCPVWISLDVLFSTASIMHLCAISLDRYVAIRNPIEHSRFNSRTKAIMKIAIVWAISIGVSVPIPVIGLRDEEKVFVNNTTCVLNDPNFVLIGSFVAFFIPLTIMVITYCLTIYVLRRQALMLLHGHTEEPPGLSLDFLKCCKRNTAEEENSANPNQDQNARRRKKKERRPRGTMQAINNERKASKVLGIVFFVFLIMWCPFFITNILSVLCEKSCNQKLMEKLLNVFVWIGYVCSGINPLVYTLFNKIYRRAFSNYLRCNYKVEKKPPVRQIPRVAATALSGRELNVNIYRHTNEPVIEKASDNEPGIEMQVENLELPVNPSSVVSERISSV

[3] = target: T3, Alpha-2A adrenergic receptor (Homo sapiens, UniProt P08913); assay type: cell membranes, Sf9, Membrane; details: sf9; note: in other assays of this panel Not Active means under 50% inhibition at 10 µM
T3 sequence (P08913 whole entry): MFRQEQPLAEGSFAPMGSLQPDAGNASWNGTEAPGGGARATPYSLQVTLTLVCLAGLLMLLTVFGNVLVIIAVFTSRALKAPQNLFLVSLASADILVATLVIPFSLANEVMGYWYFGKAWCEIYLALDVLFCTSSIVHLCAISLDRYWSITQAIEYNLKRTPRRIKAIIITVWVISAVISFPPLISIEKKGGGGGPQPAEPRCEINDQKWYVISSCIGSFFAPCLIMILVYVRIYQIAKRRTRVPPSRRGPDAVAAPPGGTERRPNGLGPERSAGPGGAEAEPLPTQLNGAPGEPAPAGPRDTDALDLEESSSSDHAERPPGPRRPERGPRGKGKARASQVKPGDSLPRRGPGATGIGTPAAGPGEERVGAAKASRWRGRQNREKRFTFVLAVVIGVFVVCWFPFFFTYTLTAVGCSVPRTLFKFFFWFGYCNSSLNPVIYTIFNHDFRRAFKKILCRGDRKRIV

Calcitonin receptor = target: T4, Calcitonin receptor (Homo sapiens, UniProt P30988); assay type: cell membranes, Membrane; details: t47d; note: in other assays of this panel Not Active means under 50% inhibition at 10 µM
T4 sequence (P30988 whole entry): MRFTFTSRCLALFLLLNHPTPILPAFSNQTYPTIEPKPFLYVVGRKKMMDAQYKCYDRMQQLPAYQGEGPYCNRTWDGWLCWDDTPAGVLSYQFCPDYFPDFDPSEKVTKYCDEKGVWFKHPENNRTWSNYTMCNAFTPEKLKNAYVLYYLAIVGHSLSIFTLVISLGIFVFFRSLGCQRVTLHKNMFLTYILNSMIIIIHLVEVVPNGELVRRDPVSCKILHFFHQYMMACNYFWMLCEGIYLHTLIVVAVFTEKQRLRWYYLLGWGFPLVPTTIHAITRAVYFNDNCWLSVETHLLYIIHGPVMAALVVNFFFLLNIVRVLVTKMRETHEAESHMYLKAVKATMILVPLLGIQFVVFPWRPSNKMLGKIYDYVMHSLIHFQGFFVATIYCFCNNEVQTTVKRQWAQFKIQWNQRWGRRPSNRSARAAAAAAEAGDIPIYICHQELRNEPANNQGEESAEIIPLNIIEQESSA

Histamine H2 receptor, sequence (P25021 whole entry): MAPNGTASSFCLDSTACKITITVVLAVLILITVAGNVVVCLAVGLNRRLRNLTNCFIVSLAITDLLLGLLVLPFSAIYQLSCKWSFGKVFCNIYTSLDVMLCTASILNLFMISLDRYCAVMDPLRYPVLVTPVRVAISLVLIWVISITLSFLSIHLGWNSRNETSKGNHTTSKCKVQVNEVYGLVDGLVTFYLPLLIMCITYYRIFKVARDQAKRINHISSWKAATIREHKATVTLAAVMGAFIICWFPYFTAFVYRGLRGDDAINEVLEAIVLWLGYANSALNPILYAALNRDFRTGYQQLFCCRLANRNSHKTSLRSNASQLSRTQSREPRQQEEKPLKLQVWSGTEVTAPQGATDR

Structure (SMILES) | IC50 (Glucocorticoid receptor) | IC50 [1] | Ki [1] | IC50 (Histamine H2 receptor) | IC50 [2] | IC50 [3] | IC50 (Calcitonin receptor) | pIC50 (Histamine H2 receptor; read-out: IC50) | pKi (Histamine H2 receptor; read-out: Ki) | pIC50 ([2]; read-out: IC50) | pKi ([2]; read-out: Ki)
NCC(CC(=O)O)c1ccc(Cl)cc1 (centres undefined) [BACLOFEN] | Not Active | Not Active | Not Active | Not Active | Not Active | Not Active | Not Active |  |  |  | 
Oc1ccccc1 [PHENOL] |  | Not Active | Not Active | Not Active | Not Active | Not Active | Not Active |  |  |  | 
CC(C)(C#N)c1cc(Cn2cncn2)cc(C(C)(C)C#N)c1 [ANASTROZOLE] | Not Active | Not Active | Not Active | Not Active | Not Active | Not Active | Not Active |  |  |  | 
Nc1ccc(Cc2ccc(N)cc2)cc1 | Not Active | Not Active | Not Active | Not Active | Not Active | Not Active | Not Active |  |  |  | 
Nc1ccc(C(=O)O)c(O)c1 [AMINOSALICYLIC ACID] | Not Active | Not Active | Not Active | Not Active | Not Active | Not Active | Not Active |  |  |  | 
C[N+](C)(C)CCOC(N)=O.[Cl-] [CARBACHOL] |  | Not Active | Not Active | Not Active | Not Active | Not Active | Not Active |  |  |  | 
O=C(NCCN1CCOCC1)c1ccc(Cl)cc1 [MOCLOBEMIDE] |  | Not Active | Not Active | Not Active | Not Active | Not Active | Not Active |  |  |  | 
CCN1CCN(c2cc3c(cc2F)c(=O)c(C(=O)O)cn3C2CC2)CC1 [ENROFLOXACIN] | Not Active | Not Active | Not Active | Not Active | Not Active | Not Active | Not Active |  |  |  | 
CC(CN1c2ccccc2Sc2ccccc21)N(C)C (centres undefined) [PROMETHAZINE] |  | Not Active | Not Active |  |  |  | Not Active | 5.93 | 5.94 | 7.92 | 8.19
C[C@]12CC[C@@H](O)C[C@@H]1CC[C@@H]1[C@@H]2CC[C@]2(C)C(=O)CC[C@@H]12 [ANDROSTERONE] | Not Active | Not Active | Not Active | Not Active | Not Active | Not Active | Not Active |  |  |  | 
COC(=O)Nc1nc2ccc(Sc3ccccc3)cc2[nH]1 [FENBENDAZOLE] | Not Active | Not Active | Not Active | Not Active | Not Active | Not Active | Not Active |  |  |  | 
COc1ccc(Cl)cc1C(=O)NCCc1ccc(S(=O)(=O)NC(=O)NC2CCCCC2)cc1 [GLYBURIDE] |  | Not Active | Not Active | Not Active | Not Active | Not Active | Not Active |  |  |  | 
CC(C)(c1ccc(O)cc1)c1ccc(O)cc1 [BISPHENOL A] |  | Not Active | Not Active | Not Active | Not Active | Not Active | Not Active |  |  |  | 
C[C@H]1C[C@H]2[C@@H]3CCC4=CC(=O)C=C[C@]4(C)[C@@]3(F)[C@@H](O)C[C@]2(C)[C@@]1(O)C(=O)CO [BETAMETHASONE] |  | Not Active | Not Active | Not Active | Not Active | Not Active | Not Active |  |  |  | 
C#C[C@]1(O)CC[C@H]2[C@@H]3CCC4=CC(=O)CC[C@@H]4[C@H]3CC[C@@]21C [NORETHINDRONE] |  | Not Active | Not Active | Not Active | Not Active | Not Active | Not Active |  |  |  | 
CC[C@H]1OC(=O)[C@H](C)[C@@H](O[C@H]2C[C@@](C)(OC)[C@@H](O)[C@H](C)O2)[C@H](C)[C@@H](O[C@@H]2O[C@H](C)C[C@H](N(C)C)[C@H]2O)[C@](C)(O)C[C@@H](C)C(=O)[C@H](C)[C@@H](O)[C@]1(C)O [ERYTHROMYCIN] |  | Not Active | Not Active | Not Active | Not Active | Not Active | Not Active |  |  |  | 
